Assay results taken from ChEMBL document CHEMBL1152860, “Synthesis and antiproliferative activity of 3-amino-N-phenyl-1H-indazole-1-carboxamides” (2009).

Assays:
Format in all cases: functional
[1] = system: DU-145; test: Growth inhibition of human DU145 cells after 48 hrs by SRB assay; conditions: DU-145, 48 h
[2] = system: CCRF-CEM; test: Growth inhibition of human CCRF-CEM cells after 48 hrs by SRB assay
[3] = system: KM12; test: Growth inhibition of human KM12 cells after 48 hrs by SRB assay; conditions: KM12, 48 h
[4] = system: NCI-H460; test: Growth inhibition of human NCI-H460 cells after 48 hrs by SRB assay; conditions: NCI-H460, 48 h
[5] = system: Malme-3M; test: Growth inhibition of human MALME-3M cells after 48 hrs by SRB assay
[6] = system: SNB-75; test: Growth inhibition of human SNB75 cells after 48 hrs by SRB assay; conditions: SNB-75, 48 h
[7] = system: MOLT-4; test: Growth inhibition of human MOLT4 cells after 48 hrs by SRB assay; conditions: MOLT-4, 48 h
[8] = system: HCT-116; test: Growth inhibition of human HCT116 cells after 48 hrs by SRB assay; conditions: HCT-116, 48 h
[9] = system: SK-MEL-2; test: Growth inhibition of human SK-MEL-2 cells after 48 hrs by SRB assay; conditions: SK-MEL-2, 48 h
[10] = system: T47D; test: Growth inhibition of human T47D cells after 48 hrs by SRB assay
[11] = system: UACC-62; test: Growth inhibition of human UACC62 cells after 48 hrs by SRB assay; conditions: UACC-62, 48 h
[12] = system: RXF 393; test: Growth inhibition of human […] cells after 48 hrs by SRB assay; conditions: RXF 393, 48 h
[13] = system: SK-MEL-28; test: Growth inhibition of human SK-MEL-28 cells after 48 hrs by SRB assay; conditions: SK-MEL-28, 48 h
[14] = system: BT-549; test: Growth inhibition of human BT549 cells after 48 hrs by SRB assay; conditions: BT-549, 48 h
[15] = system: PC-3; test: Growth inhibition of human PC3 cells after 48 hrs by SRB assay; conditions: PC-3, 48 h
[16] = system: NCI-H226; test: Growth inhibition of human NCI-H226 cells after 48 hrs by SRB assay; conditions: NCI-H226, 48 h
[17] = system: HOP-92; test: Growth inhibition of human HOP92 cells after 48 hrs by SRB assay; conditions: HOP-92, 48 h
[18] = system: CAKI-1; test: Growth inhibition of human Caki1 cells after 48 hrs by SRB assay; conditions: CAKI-1, 48 h
[19] = system: 786-0; test: Growth inhibition of human 786-0 cells after 48 hrs by SRB assay; conditions: 786-0, 48 h
[20] = system: UACC-257; test: Growth inhibition of human UACC257 cells after 48 hrs by SRB assay; conditions: UACC-257, 48 h
[21] = system: OVCAR-8; test: Growth inhibition of human OVCAR8 cells after 48 hrs by SRB assay; conditions: OVCAR-8, 48 h
[22] = system: NCI-H23; test: Growth inhibition of human NCI-H23 cells after 48 hrs by SRB assay; conditions: NCI-H23, 48 h
[23] = system: MDA-MB-231; test: Growth inhibition of human MDA-MB-231 cells after 48 hrs by SRB assay; conditions: MDA-MB-231, 48 h
[24] = system: A549; test: Growth inhibition of human A549 cells after 48 hrs by SRB assay; conditions: A549, 48 h
[25] = system: OVCAR-3; test: Growth inhibition of human OVCAR-3 cells after 48 hrs by SRB assay; conditions: OVCAR-3, 48 h
[26] = system: NCI/ADR-RES; test: Growth inhibition of human NCI/ADR-RES cells after 48 hrs by SRB assay
[27] = system: HCC 2998; test: Growth inhibition of human HCC2998 cells after 48 hrs by SRB assay; conditions: HCC 2998, 48 h
[28] = system: COLO 205; test: Growth inhibition of human COLO205 cells after 48 hrs by SRB assay; conditions: COLO 205, 48 h
[29] = system: UO-31; test: Growth inhibition of human UO31 cells after 48 hrs by SRB assay; conditions: UO-31, 48 h
[30] = system: SR; test: Growth inhibition of human SR cells after 48 hrs by SRB assay
[31] = system: IGROV-1; test: Growth inhibition of human IGROV1 cells after 48 hrs by SRB assay; conditions: IGROV-1, 48 h
[32] = system: MCF7; test: Growth inhibition of human MCF7 cells after 48 hrs by SRB assay; conditions: MCF7, 48 h
[33] = system: NCI-H522; test: Growth inhibition of human NCI-H522 cells after 48 hrs by SRB assay; conditions: NCI-H522, 48 h
[34] = system: SNB-19; test: Growth inhibition of human SNB19 cells after 48 hrs by SRB assay; conditions: SNB-19, 48 h
[35] = system: SF-539; test: Growth inhibition of human SF539 cells after 48 hrs by SRB assay; conditions: SF-539, 48 h
[36] = system: SF-268; test: Growth inhibition of human SF268 cells after 48 hrs by SRB assay; conditions: SF-268, 48 h
[37] = system: SK-OV-3; test: Growth inhibition of human SKOV3 cells after 48 hrs by SRB assay; conditions: SK-OV-3, 48 h
[38] = system: K562; test: Growth inhibition of human K562 cells after 48 hrs by SRB assay; conditions: K562, 48 h
[39] = system: MDA-MB-435; test: Growth inhibition of human MDA-MB-435 cells after 48 hrs by SRB assay; conditions: MDA-MB-435, 48 h
[40] = system: A498; test: Growth inhibition of human A498 cells after 48 hrs by SRB assay; conditions: A498, 48 h
[41] = system: M14; test: Growth inhibition of human M14 cells after 48 hrs by SRB assay; conditions: M14, 48 h
[42] = system: SW-620; test: Growth inhibition of human SW620 cells after 48 hrs by SRB assay; conditions: SW-620, 48 h
[43] = system: SN12C; test: Growth inhibition of human SN12C cells after 48 hrs by SRB assay
[44] = system: ACHN; test: Growth inhibition of human ACHN cells after 48 hrs by SRB assay
[45] = system: EKVX; test: Growth inhibition of human EKVX cells after 48 hrs by SRB assay
[46] = Growth inhibition of human Hs 578T cells after 48 hrs by SRB assay
[47] = system: HL-60(TB); test: Growth inhibition of human HL-60(TB) cells after 48 hrs by SRB assay; conditions: HL-60, 48 h
[48] = system: OVCAR-5; test: Growth inhibition of human OVCAR5 cells after 48 hrs by SRB assay; conditions: OVCAR-5, 48 h
[49] = system: TK-10; test: Growth inhibition of human TK10 cells after 48 hrs by SRB assay; conditions: TK-10, 48 h
[50] = system: SF-295; test: Growth inhibition of human SF295 cells after 48 hrs by SRB assay; conditions: SF-295, 48 h
[51] = system: RPMI-8226; test: Growth inhibition of human RPMI8226 cells after 48 hrs by SRB assay; conditions: RPMI-8226, 48 h
[52] = system: LOX IMVI; test: Growth inhibition of human LOXIMVI cells after 48 hrs by SRB assay
[53] = system: HT-29; test: Growth inhibition of human HT-29 cells after 48 hrs by SRB assay; conditions: HT-29, 48 h
[54] = system: OVCAR-4; test: Growth inhibition of human OVCAR4 cells after 48 hrs by SRB assay; conditions: OVCAR-4, 48 h
[55] = system: HCT-15; test: Growth inhibition of human HCT15 cells after 48 hrs by SRB assay; conditions: HCT-15, 48 h
[56] = system: SK-MEL-5; test: Growth inhibition of human SK-MEL-5 cells after 48 hrs by SRB assay; conditions: SK-MEL-5, 48 h
[57] = system: HOP-62; test: Growth inhibition of human HOP62 cells after 48 hrs by SRB assay; conditions: HOP-62, 48 h
[58] = system: NCI-H322M; test: Growth inhibition of human NCI-H322M cells after 48 hrs by SRB assay
[59] = system: U-251; test: Growth inhibition of human U251 cells after 48 hrs by SRB assay; conditions: U-251, 48 h

COc1ccc(NC(=O)Nc2n[nH]c3ccccc23)cc1
GI50 [1]: > 100 µM
GI50 [2]: 59.6 µM
GI50 [3]: > 100 µM
GI50 [4]: > 100 µM
GI50 [5]: > 100 µM
GI50 [6]: > 100 µM
GI50 [7]: > 100 µM
GI50 [8]: > 100 µM
GI50 [9]: > 100 µM
GI50 [10]: 100 µM
GI50 [11]: > 100 µM
GI50 [12]: > 100 µM
GI50 [13]: > 100 µM
GI50 [14]: > 100 µM
GI50 [15]: > 100 µM
GI50 [16]: > 100 µM
GI50 [17]: > 100 µM
GI50 [18]: > 100 µM
GI50 [19]: > 100 µM
GI50 [20]: > 100 µM
GI50 [21]: > 100 µM
GI50 [22]: > 100 µM
GI50 [23]: > 100 µM
GI50 [24]: > 100 µM
GI50 [25]: > 100 µM
GI50 [26]: > 100 µM
GI50 [27]: > 100 µM
GI50 [28]: > 100 µM
GI50 [29]: > 100 µM
GI50 [30]: > 100 µM
GI50 [31]: > 100 µM
GI50 [32]: > 100 µM
GI50 [33]: > 100 µM
GI50 [34]: > 100 µM
GI50 [35]: > 100 µM
GI50 [36]: > 100 µM
GI50 [37]: > 100 µM
GI50 [38]: > 100 µM
GI50 [39]: > 100 µM
GI50 [40]: > 100 µM
GI50 [41]: > 100 µM
GI50 [42]: > 100 µM
GI50 [43]: > 100 µM
GI50 [44]: > 100 µM
GI50 [45]: > 100 µM
GI50 [46]: > 100 µM
GI50 [47]: > 100 µM
GI50 [48]: > 100 µM
GI50 [49]: > 100 µM
GI50 [50]: > 100 µM
GI50 [51]: > 100 µM
GI50 [52]: > 100 µM
GI50 [53]: > 100 µM
GI50 [54]: > 100 µM
GI50 [55]: > 100 µM
GI50 [56]: > 100 µM
GI50 [57]: > 100 µM
GI50 [58]: > 100 µM
GI50 [59]: > 100 µM
